Source: patent US20210154161A1, “MODIFIED-RELEASE BUCILLAMINE COMPOSITIONS, KITS, AND METHODS FOR TREATING CYSTINURIA, ARTHRITIS, GOUT, AND RELATED DISORDERS” (ALTIBIO, INC., priority 2017, published 2021)
Each block holds one molecule with its values, some of them ahead of it.

What was measured:
[1] = cited from earlier work
[2] = cystinuria patients; cited from earlier work
[3] = Short- and long-term stability of bucillamine in Beagle dog plasma; assay type: in vitro ADME
Experimental: (§1) Stability Testing: Finally, short-term and long-term stability of bucillamine in Beagle dog plasma, pre-crashed plasma (plasma supernatant), and urine were assessed using two bucillamine concentrations (50 ng/mL or 500 ng/mL) under each of the following two conditions: (1) storage on the bench top for 4 hours and (2) frozen at −80° C. for up to one month. Samples were considered stable if their concentrations were within ±20% of nominal. These samples met acceptable criteria for stability and results are presented below, in Tables 5, 6, and 7, showing the % bucillamine remaining in Beagle dog plasma (Table 5), plasma supernatant (Table 6), and urine (Table 7).

[4] = Total bucillamine plasma concentration after oral or intraduodenal dosing regimens; assay type: in vivo, male Beagle dogs; conditions: n=3 dogs
Experimental: (§2) The objective of this study was to evaluate total and free plasma bucillamine, and urinary bucillamine, in male Beagle dogs following oral and intraduodenal administration of bucillamine, according to various dose regimens, to determine whether different regimens, simulating modified release in accordance with the present invention, would improve drug pharmacokinetics. Specifically, bucillamine formulations were administered to deliver 30 mg/kg per dog via single or multiple doses divided over a 12-hour period; and blood and urine samples then collected at different times post-dose.
(§3) Bucillamine formulations were administered to provide 30 mg/kg per dog according to five different dosage regimens (Leg 1, Leg 2, Leg 3, Leg 4, and Leg 5), as set forth in the table below. Leg 2, Leg 3, and Leg 4 (also referred to as Q6H, Q3H, and Q2H, respectively) were designed to simulate modified-release formulations, in accordance with certain embodiments of the present invention. Following administration, blood and urine samples were collected at the time points, or over the time intervals, also as indicated below.
(§4) Preparation of Dosing Formulations: Capsules for Legs 1-5 were prepared and filled on the day of dosing, as follows. For Legs 1, 2, and 5, bucillamine was dry mixed with avicel and mannitol to make a 40:30:30 mixture of bucillamine to avicel to mannitol, respectively; for study Legs 3 and 4, a 20:40:40 mixture of bucillamine to avicel to mannitol, respectively, was prepared. The dry mixes were custom filled with the appropriate amount of powder to deliver the specified doses to each dog based, on their respective body weights.
(§5) Animal Dosing and Sample Collection: This non-clinical study followed established practices and standard operating procedures of Absorption Systems and Absorption Systems Inc., as well as the study protocol. Study groups each included three dogs. The dogs were housed one per cage. For Legs 1-4, the dogs were fasted for at least six hours prior to each administration of the formulation. For Legs 1-4, food was given approximately ten hours post initial dosing. Animals had free access to water throughout the study. For Leg 5, the dogs were fasted for at least sixteen hours prior to each administration of the formulation. For Leg 5, food was given approximately eight hours post initial dosing. Animals had free access to water throughout the study. Additionally, each dog received a 60 mL subcutaneous injection of saline (a 30 mL injection, into each two different sites) approximately 30 minutes prior to dosing, for hydration.
(§6) Intraduodenal (ID) administration: Animals were anesthetized by a slow IV infusion of Propofol (6-10 mg/kg), or with an intramuscular injection of a cocktail containing ketamine (approximately 10-20 mg/kg), diazepam (3 mg/kg), and acepromazine (0.05 mg/kg) given IM about 5-10 minutes before intubation. Once animals were confirmed adequately anesthetized, they were intubated and maintained using isoflurane (approximately 1-5% in oxygen 1 to 4 L/min) as necessary until dosing was complete. Formulations were administered into the proximal duodenum via endoscopic guidance to verify the dosing site. The endoscope first was maneuvered into the pyloric sphincter with camera visualization of the proximal duodenum. Once there was confirmation that the endoscope was placed between the pylorus and proximal duodenum, the test article was delivered to the proximal duodenum followed by a 5 mL flush. […]

[5] = Short- and long-term stability of bucillamine in Beagle dog urine; assay type: in vitro ADME
Experimental: (§7) For the analysis, analytical stock solutions (1.00 mg/mL of the free drug) were prepared in DMSO. Also, three standards for use in the analysis were prepared in each of the following media, as follows: (1) in male Beagle plasma containing sodium heparin as the anticoagulant; (2) in Beagle plasma that had previously been treated with acetonitrile to precipitate and remove plasma proteins (the […] supernatant was diluted with acetonitrile (3:1 acetonitrile:plasma supernatant) to give pre-crashed Beagle plasma supernatant); and (3) in 10× diluted Beagle urine, diluted in water. The term “pre-crashed plasma” refers to plasma supernatant, obtained in the centrifugation step described above.
Samples were considered stable if their concentrations were within ±20% of nominal. These samples met acceptable criteria for stability and results are presented below, in Tables 5, 6, and 7, showing the % bucillamine remaining in Beagle dog plasma (Table 5), plasma supernatant (Table 6), and urine (Table 7).

[6] = Example 5: urine cystine in cystinuria dogs, simulated extended-release bucillamine; assay type: in vivo; conditions: enterically-coated bucillamine 8 times/day, same total daily dosage
Experimental: This Example describes a study to confirm the feasibility of reducing cystine levels in the urine of cystinuria dogs receiving more frequent and lower doses of bucillamine, in a dosing schedule designed to simulate the extended release formulations of the present invention, compared to urine cystine levels in cystinuria dogs receiving non-coated bucillamine. Study Design: Subject dogs are dosed as follows: Day 1: […] Day 2: Repeat Day 1 Day 3: No treatment Day 4: No treatment Day 5: To simulate extended-release, enterically-coated bucillamine is orally administered at lower dose, 8 times/day (i.e., every three hours), to provide a total daily dosage equal to that used in Days 1 and 2. A simple enteric coating is used that avoids release in the stomach. Also, 24 hour urine cystine capacity is measured, that is, all urine over a 24-hour period, starting from the time of the first dose, is collected and used to measure urinary cystine concentration. Day 6: Repeat Day 5

[7] = majority of patients; 1,800 mg bucillamine over 7 days; 72 hours post-dose; without rescue drug; cited from earlier work
[8] = Free bucillamine plasma concentration after oral or intraduodenal dosing regimens; assay type: in vivo, male Beagle dogs; conditions: for maximum plasma concentrations of free bucillamine (average): n=3 dogs
Experimental: as §2, §3, §4, §5
as §6, with “flush. Upon completion of the dosing, the animals were taken off the isoflurane and allowed to recover from anesthesia. Time points began upon completion of the entire dose procedure. Following each blood sampling time point, 15 mL of water was given to each dog via syringe. Approximately 30 minutes prior to the 0 hour blood collection, each dog received a subcutaneous injection of 60 mL of saline (a 30 mL injection into each of two different sites) for hydration.” for “flush.”

[9] = Bucillamine urinary recovery after oral or intraduodenal dosing regimens; assay type: in vivo, male Beagle dogs; conditions: for % of the dose (unchanged drug) found in urine, on average: n=3 dogs
Experimental: as §2, §3, §4, §5
as §6, with “flush. Upon completion of the dosing, the animals were taken off the isoflurane and allowed to recover from anesthesia. Time points began upon completion of the entire dose procedure. Following each blood sampling time point, 15 mL of water was given to each dog via syringe. Approximately 30 minutes prior to the 0 hour blood collection, each dog received a subcutaneous injection of 60 mL of saline (a 30 mL injection into each of two different sites) for hydration.” for “flush.”

[10] = Short- and long-term stability of bucillamine in Beagle dog plasma supernatant (pre-crashed plasma); assay type: in vitro ADME
Experimental: as §7, §1

[11] = Example 3: cystine stone formation in cystinuria patients, about 1 week; assay type: in vivo, human; conditions: Days 2-8, enterically-coated bucillamine oral 100 mg x 8 or x 12 times/day
Experimental: This Example describes a study to confirm the improved efficacy of reducing cystine stone formation in cystinuria patients who develop at least one stone per week using standard Thiola® dosing. Study Design: […] The patients are dosed as follows: Day 1: No treatment; an X-ray is taken of the kidney and bladder. Days 2-8: To simulate extended release, enterically-coated bucillamine is orally administered at either 100 mg x 8 times/day (i.e., every three hours) or 100 mg x 12 times/day (i.e., every two hours). A simple enteric coating is used that avoids release in the stomach. Also, 24 hour urine cystine capacity is measured, that is, all urine over a 24-hour period, starting from the time of the first dose, is collected and used to measure urinary cystine concentration. Day 8: X-ray examination of Day 1 is repeated.

[12] = cited from earlier work; remark: listed apart in the source
[13] = cited from earlier work; remark: listed apart in the source
[14] = 50 ng/mL (low), -80 C freezer for 1 week
[15] = 50 ng/mL (low), bench top (RT) for 4 hours
[16] = 500 ng/mL (high), -80 C freezer for 1 week
[17] = 500 ng/mL (high), bench top (RT) for 4 hours
[18] = Leg 1 (Q12H): PO, single 30 mg/kg dose
[19] = Leg 2: PO 30 mg/kg as two 15 mg/kg doses at 0 and 6 h
[20] = Leg 3 (Q3H): PO 30 mg/kg as four 7.5 mg/kg doses at 0, 3, 6, 9 h
[21] = Leg 4: PO 30 mg/kg as six 5 mg/kg doses at 0, 2, 4, 6, 8, 10 h
[22] = Leg 5: ID, single 30 mg/kg dose

Compound: CC(C)(S)[C@@H](N)C(=O)O [D-penicillamine]
solubility of the di-sulfide complex formed, relative to cystine [1]: 50 times
patients with severe side effects / who cannot tolerate the drug [2]: 50-70%

% Bucillamine Remaining in Beagle Dog Plasma [3, 14]: 114%
% Bucillamine Remaining in Beagle Dog Plasma ([3]; 50 ng/mL (low), -80 C freezer for 2 weeks): 108%
% Bucillamine Remaining in Beagle Dog Plasma ([3]; 50 ng/mL (low), -80 C freezer for 4 weeks): 114%
% Bucillamine Remaining in Beagle Dog Plasma [3, 15]: 110%
% Bucillamine Remaining in Beagle Dog Plasma [3, 16]: 96.4%
% Bucillamine Remaining in Beagle Dog Plasma ([3]; 500 ng/mL (high), -80 C freezer for 2 weeks): 97.3%
% Bucillamine Remaining in Beagle Dog Plasma ([3]; 500 ng/mL (high), -80 C freezer for 4 weeks): 107%
% Bucillamine Remaining in Beagle Dog Plasma [3, 17]: 96.9%
maximum plasma concentrations of total bucillamine (average) [4, 18]: 24400 ± 8253 ng/mL
maximum plasma concentrations of total bucillamine (average) [4, 19]: 33533 ± 2139 ng/mL
maximum plasma concentrations of total bucillamine (average) [4, 20]: 25133 ± 3500 ng/mL
maximum plasma concentrations of total bucillamine (average) [4, 21]: 23800 ± 819 ng/mL
maximum plasma concentrations of total bucillamine (average) ([4]; Leg 5 (Q12H): ID, single 30 mg/kg dose): 19940 ± 11015 ng/mL
% Bucillamine Remaining in Beagle Dog Urine ([5]; High (2500 ng/mL), -80 C freezer for 1 week): 102%
% Bucillamine Remaining in Beagle Dog Urine ([5]; High (2500 ng/mL), -80 C freezer for 2 week): 101%
% Bucillamine Remaining in Beagle Dog Urine ([5]; High (2500 ng/mL), -80 C freezer for 4 week): 96.3%
% Bucillamine Remaining in Beagle Dog Urine ([5]; High (2500 ng/mL), bench top (RT) for 4 hours): 102%
% Bucillamine Remaining in Beagle Dog Urine ([5]; Low (250 ng/mL), -80 C freezer for 1 week): 97.7%
% Bucillamine Remaining in Beagle Dog Urine ([5]; Low (250 ng/mL), -80 C freezer for 2 week): 90.9%
% Bucillamine Remaining in Beagle Dog Urine ([5]; Low (250 ng/mL), -80 C freezer for 4 week): 88.9%
% Bucillamine Remaining in Beagle Dog Urine ([5]; Low (250 ng/mL), bench top (RT) for 4 hours): 93.7%
time at which maximum plasma concentrations of free bucillamine were observed [8, 18]: 2 hours post dosing
maximum plasma concentrations of free bucillamine (average) [8, 18]: 2437 ± 728 ng/mL
maximum plasma concentrations of free bucillamine (average) [8, 19]: 3957 ± 1226 ng/mL
maximum plasma concentrations of free bucillamine (average) [8, 20]: 4327 ± 1127 ng/mL
maximum plasma concentrations of free bucillamine (average) [8, 21]: 1820 ± 471 ng/mL
maximum plasma concentrations of free bucillamine (average) [8, 22]: 1187 ± 656 ng/mL
% of the dose (unchanged drug) found in urine, on average ([9]; Leg 1: PO, single 30 mg/kg dose): 57.3±25.8%
% of the dose (unchanged drug) found in urine, on average [9, 19]: 54.5±6.63%
% of the dose (unchanged drug) found in urine, on average [9, 20]: 25.8±14.0%
% of the dose (unchanged drug) found in urine, on average [9, 21]: 16.1±5.65%
% of the dose (unchanged drug) found in urine, on average [9, 22]: 20.2±7.51%
share of the drug recovered in urine excreted within the first 4 hours ([9]; Q12H schedule, PO single 30 mg/kg dose, FIG. 22, n=2 dogs): 80%
% Bucillamine Remaining in Beagle Dog Plasma Supernatant [10, 14]: 94.3%
% Bucillamine Remaining in Beagle Dog Plasma Supernatant ([10]; 50 ng/mL (low), -80 C freezer for 2 week): 99.1%
% Bucillamine Remaining in Beagle Dog Plasma Supernatant ([10]; 50 ng/mL (low), -80 C freezer for 4 week): 107%
% Bucillamine Remaining in Beagle Dog Plasma Supernatant [10, 15]: 105%
% Bucillamine Remaining in Beagle Dog Plasma Supernatant [10, 16]: 97.2%
% Bucillamine Remaining in Beagle Dog Plasma Supernatant ([10]; 500 ng/mL (high), -80 C freezer for 2 week): 110%
% Bucillamine Remaining in Beagle Dog Plasma Supernatant ([10]; 500 ng/mL (high), -80 C freezer for 4 week): 119%
% Bucillamine Remaining in Beagle Dog Plasma Supernatant [10, 17]: 117%
Compound: CC(C)(S)C(=O)N[C@@H](CS)C(=O)O [bucillamine, N-(2-mercapto-2-methylpropionyl)-L-cysteine]
urine cystine levels over Days 5-6 compared with Days 1-2 of uncoated (immediate-release) dosing [6]: consistently lower
reduction in target joint pain scores from baseline [7]: at least 50%
additional cystine stones on X-ray of Day 8 compared to Day 1 [11]: no additional stones

Compound: CC(S)C(=O)NCC(=O)O (stereo not drawn) [tiopronin, alpha-mercaptopropionylglycine]
cases/patients in which the drug is discontinued ([12]; due to adverse reactions, need for frequent dosing, poor efficacy): about 30%
cystinuria patients failed by the medication (continue forming stones) ([12]; human, in vivo): 85%
patients who achieve and maintain therapeutic success ([12]; human, in vivo): 15%
period of effectiveness in reducing cystine urine levels ([12]; human, in vivo): 2 to 4 h
time of primary urine excretion wave after oral administration ([13]; immediate-release tiopronin, oral): 3 to 4 h
time after administration at which urine excretion of free tiopronin and mixed-sulfide tiopronin mostly occurs ([13]; in vivo): 2 to 4 h
free tiopronin excreted in urine within 2 hours of administration ([13]; within 2 hours of Thiola administration): ≤ 95%
